{
  "source": "patent US20260345593A1",
  "about": "“ORAL FORMULATION OF N-PYRIDINYL ACETAMIDE DERIVATIVE FOR TREATING INTERSTITIAL LUNG DISEASE” (AstraZeneca AB, priority 2022, published 2026)",
  "origin": "cited, not measured here",
  "key": {"[1]": {"system": "Axin2 expression levels in skin samples from subjects with advanced cancers", "settings": "10 mg once daily, cited from earlier work"}, "[2]": {"system": "patients with ILD-PF other than IPF", "settings": "ILD-PF other than IPF (Wells 2020); cited from earlier work"}, "patients with IPF": {"system": "patients with IPF", "settings": "cited from earlier work; for rate of decline in lung function: patients with IPF (King 2014 and Richeldi 2014); for GI side effects / tolerability in IPF patients: patients with IPF"}, "[3]": {"system": "ILD patients with SSc-ILD", "settings": "SSc-ILD (Khanna 2020); cited from earlier work"}, "[4]": {"settings": "20 mg BID, preclinical and clinical studies; cited from earlier work"}, "pH elevation": {"system": "pH elevation", "settings": "20 mg BID oral pre-treatment; cited from earlier work"}},
  "data": [
    {"compound": "Cc1cc(-c2ncc(CC(=O)Nc3ccc(-c4cnccn4)cn3)cc2C)ccn1", "note": "[Wnt974]", "values": [
      {"measurement": "reduction in Axin2 expression levels in skin samples", "setting": "[1]; subjects with advanced cancers (Rodon 2021)", "result": "approximately 90%"},
      {"measurement": "average Ctrough at steady state", "setting": "[1]; subjects with advanced cancers", "result": 3.7, "unit": "×IC50"}
    ]},
    {"compound": "COC(=O)c1ccc2c(c1)NC(=O)/C2=C(\\Nc1ccc(N(C)C(=O)CN2CCN(C)CC2)cc1)c1ccccc1", "note": "[nintedanib, methyl (3Z)-3-{[(4-{methyl[(4-methylpiperazin-1-yl)acetyl]amino}phenyl)amino](phenyl)methylidene}-2-oxo-2,3-dihydro-1H-indole-6-carboxylate]", "values": [
      {"measurement": "rate of decline in lung function", "setting": "[2]", "result": "slow the rate of decline in lung function in these patients"},
      {"measurement": "rate of decline in lung function", "setting": "patients with IPF", "result": "slow the rate of decline in lung function"},
      {"measurement": "GI side effects", "setting": "patients with IPF", "result": "troublesome GI side effects"},
      {"measurement": "tolerability in IPF patients", "setting": "patients with IPF", "result": "many patients with IPF are not able to tolerate these medications"}
    ]},
    {"compound": "Cc1ccc(=O)n(-c2ccccc2)c1", "note": "[pirfenidone]", "values": [
      {"measurement": "rate of decline in lung function", "setting": "patients with IPF", "result": "slow the rate of decline in lung function"},
      {"measurement": "GI side effects", "setting": "patients with IPF", "result": "troublesome GI side effects"},
      {"measurement": "tolerability in IPF patients", "setting": "patients with IPF", "result": "many patients with IPF are not able to tolerate these medications"}
    ]},
    {"compound": "Tocilizumab: a monoclonal antibody directed against the IL-6 receptor", "values": [
      {"measurement": "progression of lung disease", "setting": "[3]", "result": "slow progression of lung disease"}
    ]},
    {"compound": "COCCCOc1ccnc(C[S+]([O-])c2nc3ccccc3[nH]2)c1C", "note": "(racemic) [rabeprazole, (RS)-2-([4-(3-methoxypropoxy)-3-methylpyridin-2-yl]methylsulfinyl)-1H-benzo[d]imidazole]", "values": [
      {"measurement": "safety concerns", "setting": "[4]", "result": "not raised any notable safety concerns"},
      {"measurement": "time to PD steady state of pH elevation", "setting": "pH elevation", "result": 3, "unit": "days"}
    ]}
  ]
}
